The NIST ThermoML archive (doi:10.1016/j.jct.2007.06.014)

Test: xn = mol fraction of the nth substance listed
Conditions: Liquid, Bellows volumetry

CCCC [butane] + CCC
mass density [kg/m3]
Conditions	280 K	300 K	320 K	340 K	360 K	380 K	400 K	420 K	440 K
1000 kPa, x2 = 0.2729	578.83	–	528	–	–	–	–	–	–
1000 kPa, x2 = 0.5021	563.28	537.32	–	–	–	–	–	–	–
1000 kPa, x2 = 0.7308	546.41	–	–	–	–	–	–	–	–
2000 kPa, x2 = 0.2729	580.29	–	530.61	–	467.01	–	–	–	–
2000 kPa, x2 = 0.5021	564.88	539.48	511.85	479.55	–	–	–	–	–
2000 kPa, x2 = 0.7308	548.19	–	489.94	–	–	–	–	–	–
3000 kPa, x2 = 0.2729	581.81	–	533.12	–	472.48	–	–	–	–
3000 kPa, x2 = 0.5021	566.5	541.56	514.73	483.91	445.79	–	–	–	–
3000 kPa, x2 = 0.7308	550.07	–	493.41	–	409.73	–	–	–	–
5000 kPa, x2 = 0.2729	584.56	–	537.8	–	481.94	–	398.7	–	–
5000 kPa, x2 = 0.5021	569.65	545.62	519.99	491.54	458.29	415.53	–	–	–
5000 kPa, x2 = 0.7308	553.51	–	499.74	–	428.83	–	–	–	–
10000 kPa, x2 = 0.2729	591.21	–	548.01	–	499.9	–	441.29	–	365.44
10000 kPa, x2 = 0.5021	576.66	554.42	531.57	506.78	480.01	449.59	415.12	374.84	–
10000 kPa, x2 = 0.7308	561.23	–	512.85	–	456.8	–	383.18	–	–
20000 kPa, x2 = 0.2729	602.5	–	564.4	–	524.51	–	481.03	–	435.74
20000 kPa, x2 = 0.5021	588.96	569.12	549.41	528.92	507.83	485.35	462.03	438.42	414.16
20000 kPa, x2 = 0.7308	574.44	–	532.72	–	488.73	–	440.67	–	389.82
30000 kPa, x2 = 0.2729	612.44	–	577.65	–	542.33	–	505.41	–	469.11
30000 kPa, x2 = 0.5021	599.33	581.32	563.54	545.35	527.21	508.03	488.88	469.92	451.25
30000 kPa, x2 = 0.7308	585.33	–	547.73	–	509.86	–	470.45	–	431.31
40000 kPa, x2 = 0.2729	621.14	–	588.82	–	556.62	–	523.61	–	492.08
40000 kPa, x2 = 0.5021	608.38	591.53	575.17	558.59	542.25	525.24	508.28	491.93	475.9
40000 kPa, x2 = 0.7308	594.97	–	560.18	–	526.15	–	491.38	–	458.02
50000 kPa, x2 = 0.2729	628.91	–	598.52	–	568.47	–	538.25	–	509.82
50000 kPa, x2 = 0.5021	616.39	600.55	585.24	569.82	554.89	539.26	523.78	509	494.74
50000 kPa, x2 = 0.7308	603.42	–	570.96	–	539.49	–	507.84	–	478.11
60000 kPa, x2 = 0.2729	635.9	–	607.13	–	578.91	–	550.71	–	524.44
60000 kPa, x2 = 0.5021	623.79	608.7	594.24	579.76	565.84	551.17	536.84	523.17	510.12
60000 kPa, x2 = 0.7308	611.1	–	580.28	–	550.83	–	521.54	–	494.23
70000 kPa, x2 = 0.2729	642.5	–	614.83	–	588.2	–	561.45	–	537.02
70000 kPa, x2 = 0.5021	630.58	616.01	602.33	588.57	575.48	561.44	548.1	535.32	523.11
70000 kPa, x2 = 0.7308	618.12	–	588.77	–	561.04	–	533.25	–	507.76
80000 kPa, x2 = 0.2729	648.79	–	622.08	–	596.65	–	571.06	–	547.99
80000 kPa, x2 = 0.5021	636.93	622.84	609.65	596.66	584.07	570.85	558.01	546.03	534.41
80000 kPa, x2 = 0.7308	624.55	–	596.34	–	570.01	–	543.56	–	519.7
90000 kPa, x2 = 0.2729	654.49	–	628.57	–	604.5	–	579.66	–	557.71
90000 kPa, x2 = 0.5021	642.73	629.02	616.63	603.93	592.03	579.23	567.04	555.52	544.56
90000 kPa, x2 = 0.7308	630.61	–	603.52	–	578.24	–	552.92	–	530.16
100000 kPa, x2 = 0.2729	659.68	–	634.85	–	611.65	–	587.69	–	566.67
100000 kPa, x2 = 0.5021	648.26	635.14	623.18	610.72	598.96	587	575.06	564.2	553.96
100000 kPa, x2 = 0.7308	636.39	–	610.01	–	585.56	–	561.28	–	539.53
120000 kPa, x2 = 0.2729	669.67	–	646.16	–	624.31	–	601.92	–	582.31
120000 kPa, x2 = 0.5021	658.24	646	634.71	622.95	612.34	600.73	589.51	579.48	569.97
120000 kPa, x2 = 0.7308	646.6	–	621.8	–	599.05	–	576.29	–	556.04
140000 kPa, x2 = 0.2729	678.58	–	656.29	–	635.59	–	614.15	–	595.88
140000 kPa, x2 = 0.5021	667.41	655.77	644.69	634.01	623.77	612.71	602.26	592.86	583.79
140000 kPa, x2 = 0.7308	656.14	–	632.64	–	610.8	–	589.3	–	570.27
160000 kPa, x2 = 0.2729	686.88	–	665.5	–	645.73	–	625.33	–	607.79
160000 kPa, x2 = 0.5021	675.8	664.45	654.03	643.77	634.07	623.67	613.48	604.42	596.12
160000 kPa, x2 = 0.7308	664.71	–	642.48	–	621.39	–	600.76	–	582.77
180000 kPa, x2 = 0.2729	694.53	–	673.94	–	654.77	–	635.3	–	618.69
180000 kPa, x2 = 0.5021	683.54	672.59	662.68	652.74	643.46	633.32	623.72	615.03	606.9
180000 kPa, x2 = 0.7308	672.47	–	651.07	–	630.95	–	611.22	–	593.99
200000 kPa, x2 = 0.2729	701.52	–	681.74	–	663.07	–	644.44	–	628.49
200000 kPa, x2 = 0.5021	690.83	680.14	670.56	660.89	652.2	642.49	632.92	624.5	616.83
200000 kPa, x2 = 0.7308	679.87	–	659.14	–	639.82	–	620.55	–	604.14
